Data as given in PubChem BioAssay AID330 (DTP/NCI, 2004).
Inconclusive results and toxic doses are left out. Rule for the calls: active = survival T/C of 150% or more; inactive = T/C below 125% in these data.

Tested on: P388 leukemia ip, CD2F1 mice, survival T/C
Test: NCI In Vivo Anticancer Drug Screen. Data for tumor model P388 Leukemia (intraperitoneal) in CD2F1 (CDF1) mice
Details: endpoint: median survival time, higher = longer survival
In short: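 Mice carrying the transplanted tumor received test compound or vehicle. Survival was recorded in each group, and the value is the treated-group measurement divided by that of the vehicle-treated control group.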

[1] = dose: 50.0 mg/kg/injection, schedule: Q01DX009 (ip), vehicle: Klucel (hydroxypropylcellulose) (HPC)
[2] = dose: 100.0 mg/kg/injection, schedule: Q01DX009 (ip), vehicle: Klucel (hydroxypropylcellulose) (HPC)
[3] = dose: 200.0 mg/kg/injection, schedule: Q01DX009 (ip), vehicle: Klucel (hydroxypropylcellulose) (HPC)
[4] = dose: 100.0 mg/kg/injection, schedule: Q01DX001 (ip), vehicle: saline
[5] = dose: 200.0 mg/kg/injection, schedule: Q01DX001 (ip), vehicle: saline
[6] = dose: 50.0 mg/kg/injection, schedule: Q01DX005 (ip), vehicle: saline with Tween-80
[7] = dose: 100.0 mg/kg/injection, schedule: Q01DX001 (ip), vehicle: saline with Tween-80

Measured: T/C

C[C@]12CC[C@H]3[C@@H](CCC4=CC(=O)CC[C@@]43C)[C@@H]1CC[C@@H]2C(=O)C=O
inactive: [1] 109 % of control | [2] 106 % of control | [3] 103 % of control

CNC(C)(C(=O)O)C(=O)Nc1ccccc1 (configuration not stated)
inactive: [4] 112 % of control | [5] 123 % of control

O=Cc1ccc(N2OC(c3ccc([N+](=O)[O-])cc3)C(c3ccc([N+](=O)[O-])cc3)C2c2ccc([N+](=O)[O-])cc2)cc1 (configuration not stated)
inactive: dose: 50.0 mg/kg/injection, schedule: Q01DX009 (ip), vehicle: acetone 96 % of control | dose: 100.0 mg/kg/injection, schedule: Q01DX009 (ip), vehicle: acetone 93 % of control | dose: 200.0 mg/kg/injection, schedule: Q01DX009 (ip), vehicle: acetone 100 % of control

Cc1nn(C)c(Cl)c1C(=O)Nc1ccccc1
inactive: [6] 96 % of control | dose: 60.0 mg/kg/injection, schedule: Q01DX005 (ip), vehicle: saline with Tween-80 98 % of control | dose: 100.0 mg/kg/injection, schedule: Q01DX005 (ip), vehicle: saline with Tween-80 96 % of control | dose: 200.0 mg/kg/injection, schedule: Q01DX005 (ip), vehicle: saline with Tween-80 90 % of control | dose: 240.0 mg/kg/injection, schedule: Q01DX005 (ip), vehicle: saline with Tween-80 92 % of control

N#CC(/C=C/c1ccccc1)Nc1ccccc1N (configuration not stated)
inactive: [7] 100 % of control | dose: 400.0 mg/kg/injection, schedule: Q01DX001 (ip), vehicle: saline with Tween-80 100 % of control

Clc1ccc(C2=Nc3ccccc3SC(c3ccco3)C2)cc1Cl (configuration not stated)
inactive: dose: 100.0 mg/kg/injection, schedule: Q04DX002 (ip), vehicle: saline with Tween-80 100 % of control | dose: 200.0 mg/kg/injection, schedule: Q04DX002 (ip), vehicle: saline with Tween-80 96 % of control | dose: 400.0 mg/kg/injection, schedule: Q04DX002 (ip), vehicle: saline with Tween-80 102 % of control

O=c1cc[nH]c(=O)o1
inactive: dose: 6.25 mg/kg/injection, schedule: Q01DX009 (ip), vehicle: water 108 % of control | dose: 12.5 mg/kg/injection, schedule: Q01DX009 (ip), vehicle: water 119 % of control | dose: 25.0 mg/kg/injection, schedule: Q01DX009 (ip), vehicle: water 124 % of control | dose: 50.0 mg/kg/injection, schedule: Q01DX009 (ip), vehicle: water 121 % of control

CC(=O)N(O)CC(=O)OCc1ccccc1
inactive: dose: 12.5 mg/kg/injection, schedule: Q01DX009 (ip), vehicle: other 96 % of control | dose: 25.0 mg/kg/injection, schedule: Q01DX009 (ip), vehicle: other 104 % of control | dose: 50.0 mg/kg/injection, schedule: Q01DX009 (ip), vehicle: other 102 % of control | dose: 100.0 mg/kg/injection, schedule: Q01DX009 (ip), vehicle: other 111 % of control | dose: 200.0 mg/kg/injection, schedule: Q01DX009 (ip), vehicle: other 100 % of control

COc1ccc2c(c1)c(NCCCCCC#N)cc(C)[n+]2C
inactive: dose: 12.5 mg/kg/injection, schedule: Q01DX005 (ip), vehicle: saline with Tween-80 100 % of control | dose: 25.0 mg/kg/injection, schedule: Q01DX005 (ip), vehicle: saline with Tween-80 100 % of control | [6] 105 % of control

CCc1ccc(S(=O)(=O)O)cc1
inactive: dose: 50.0 mg/kg/injection, schedule: Q01DX009 (ip), vehicle: saline with Tween-80 100 % of control | dose: 100.0 mg/kg/injection, schedule: Q01DX009 (ip), vehicle: saline with Tween-80 94 % of control | dose: 200.0 mg/kg/injection, schedule: Q01DX009 (ip), vehicle: saline with Tween-80 98 % of control

O=C(Nc1cccc2nsnc12)c1ccc(C(=O)Nc2cccc3nsnc23)cc1
inactive: dose: 0.46 mg/kg/injection, schedule: Q01DX005 (ip), vehicle: Klucel (hydroxypropylcellulose) (HPC) 97 % of control | dose: 0.93 mg/kg/injection, schedule: Q01DX005 (ip), vehicle: Klucel (hydroxypropylcellulose) (HPC) 96 % of control | dose: 1.87 mg/kg/injection, schedule: Q01DX005 (ip), vehicle: Klucel (hydroxypropylcellulose) (HPC) 98 % of control | dose: 30.0 mg/kg/injection, schedule: Q01DX005 (ip), vehicle: Klucel (hydroxypropylcellulose) (HPC) 86 % of control | dose: 240.0 mg/kg/injection, schedule: Q01DX005 (ip), vehicle: Klucel (hydroxypropylcellulose) (HPC) 98 % of control

CC(=O)/C(C=NCC(C)(CN=C/C(C(C)=O)=C(/C)O)CN=C/C(C(C)=O)=C(/C)O)=C(\C)O (configuration not stated)
inactive: [1] 97 % of control | [2] 100 % of control | [3] 100 % of control

CC1=C(C#N)C(=N)OC1(C)C1CC(=O)C=CC1=O (configuration not stated)
inactive: dose: 60.0 mg/kg/injection, schedule: Q01DX005 (ip), vehicle: suspension in saline 119 % of control

O=C(CCl)c1ccc(Cl)c(Cl)c1
inactive: dose: 100.0 mg/kg/injection, schedule: Q01DX001 (ip), vehicle: other 100 % of control | dose: 200.0 mg/kg/injection, schedule: Q01DX001 (ip), vehicle: other 100 % of control

CC(=O)NCC(C)C
inactive: [4] 100 % of control | [5] 100 % of control | dose: 400.0 mg/kg/injection, schedule: Q01DX001 (ip), vehicle: saline 100 % of control

O=C1c2cccc(Oc3ccccc3)c2C(=O)c2cccc(Oc3ccccc3)c21
inactive: dose: 100.0 mg/kg/injection, schedule: Q04DX003 (ip), vehicle: saline with Tween-80 95 % of control | dose: 200.0 mg/kg/injection, schedule: Q04DX003 (ip), vehicle: saline with Tween-80 86 % of control | dose: 400.0 mg/kg/injection, schedule: Q04DX003 (ip), vehicle: saline with Tween-80 90 % of control

COC(=O)c1nc(N)nc(C(=O)OC)c1C(=O)c1cccnc1
inactive: dose: 60.0 mg/kg/injection, schedule: Q01DX005 (ip), vehicle: Klucel (hydroxypropylcellulose) (HPC) 95 % of control | dose: 120.0 mg/kg/injection, schedule: Q01DX005 (ip), vehicle: Klucel (hydroxypropylcellulose) (HPC) 93 % of control

C1CNCOC1
inactive: dose: 50.0 mg/kg/injection, schedule: Q04DX003 (ip), vehicle: saline 120 % of control | dose: 100.0 mg/kg/injection, schedule: Q04DX003 (ip), vehicle: saline 117 % of control | dose: 200.0 mg/kg/injection, schedule: Q04DX003 (ip), vehicle: saline 123 % of control

C[N+](C)(C)C
inactive: dose: 2.5 mg/kg/injection, schedule: Q01DX009 (ip), vehicle: saline 110 % of control | dose: 5.0 mg/kg/injection, schedule: Q01DX009 (ip), vehicle: saline 100 % of control | dose: 10.0 mg/kg/injection, schedule: Q01DX009 (ip), vehicle: saline 100 % of control

CCCCCCC(CCC1CCCCC1)C(=O)O (configuration not stated)
inactive: dose: 50.0 mg/kg/injection, schedule: Q01DX001 (ip), vehicle: saline with Tween-80 109 % of control | [7] 109 % of control | dose: 200.0 mg/kg/injection, schedule: Q01DX001 (ip), vehicle: saline with Tween-80 100 % of control

N=Nc1c(O)[nH]c2ccccc12
inactive: [1] 89 % of control | [2] 89 % of control | [3] 95 % of control | dose: 400.0 mg/kg/injection, schedule: Q01DX009 (ip), vehicle: Klucel (hydroxypropylcellulose) (HPC) 100 % of control

COc1cc(-c2ccc(O)cc2)c(OC)c(O)c1-c1ccc(O)c(O)c1
inactive: dose: 0.6 mg/kg/injection, schedule: Q01DX009 (ip), vehicle: saline 100 % of control | dose: 1.2 mg/kg/injection, schedule: Q01DX009 (ip), vehicle: saline 95 % of control | dose: 10.0 micrograms/kg/injection, schedule: Q01DX009 (ip), vehicle: saline with Tween-80 111 % of control | dose: 20.0 micrograms/kg/injection, schedule: Q01DX009 (ip), vehicle: saline with Tween-80 105 % of control | dose: 40.0 micrograms/kg/injection, schedule: Q01DX009 (ip), vehicle: saline with Tween-80 104 % of control | dose: 80.0 micrograms/kg/injection, schedule: Q01DX009 (ip), vehicle: saline with Tween-80 105 % of control

CC(=O)/C(C(=N)c1nc(C)c(C(C)=O)c(C(N)=O)n1)=C(\C)O
inactive: dose: 50.0 mg/kg/injection, schedule: Q01DX005 (ip), vehicle: Klucel (hydroxypropylcellulose) (HPC) 103 % of control | dose: 100.0 mg/kg/injection, schedule: Q01DX005 (ip), vehicle: Klucel (hydroxypropylcellulose) (HPC) 100 % of control

CC(C)COC1CCc2ncccc2O1 (configuration not stated)
inactive: dose: 50.0 mg/kg/injection, schedule: Q01DX009 (ip), vehicle: saline 104 % of control | dose: 100.0 mg/kg/injection, schedule: Q01DX009 (ip), vehicle: saline 104 % of control | dose: 200.0 mg/kg/injection, schedule: Q01DX009 (ip), vehicle: saline 103 % of control

N=C(N)c1ccc(/C=C/c2cc3ccc(C(=N)N)cc3[nH]2)cc1
inactive: dose: 6.25 mg/kg/injection, schedule: Q04DX003 (ip), vehicle: saline 113 % of control
